No end group written: not given here.
Key:
[1] = system: auto-antibodies in RA sera; assay: ELISA of serum auto-antibodies on MTP coated with Thy-GA peptide conjugate (Example 2); type: binding, human; conditions: RA RF+ sera vs RA RF- sera vs control sera; serum diluted one-hundred fold; conjugate coated at 10 μg/ml; FIG. 5
Excerpt: It was investigated whether auto-antibodies would recognise an Asn-315 derived septa-peptide and whether such auto-antibodies are a characteristic feature of rheumatoid arthritis. In order to carry out such investigations the IgG Fc Asn-315 derived (βL) septa-peptide Trp-Leu-Asp-β-Gly-Lys-Glu-Tyr, was manufactured synthetically. The peptide used was a preparation of linear (αL form) Trp-Leu-Asn-Gly-Lys-Glu-Tyr peptide heated to promote isomerisation by the following procedure. The peptide was dissolved in the buffer and heated for 4 hours at 90° C. to promote isomerisation and/or optical inversion. The resulting mix of isomerised (βL) optically inverted (αD and βD) and linear (αL) peptides were analysed by RP-HPLC using a 15-35% acetonitrile gradient in 0.1% TFA over 10 minutes with a flow rate of 1 ml/min, and the isomerisation status of the resulting peaks were studied by amino-acid analysis as described above. This peptide was dissolved at 5 mg/ml in 0.2 M Na-Phosphate pH 9.2. […]
0.5 ml thyroglobulin (30 mg/ml) in 0.1 M Na-phosphate buffer pH 8.0, was added drop-wise (over 2 minutes) and under constant mixing to 0.5 mL of the following solution: 10% GA, 40% H2O, 50% 0.2 M Na-Phosphate pH 8.0. […] The final volume was adjusted to 1500 μL and the protein concentration was determined by a BioRad protein assay performed according to the manufacturers instructions. […]

RA autoantibodies = assay: Competition ELISA: sera pre-incubated with peptides, then Thy-GA-Trp-Leu-*Asx-Gly-Lys-Glu-Tyr coated plates (Example 3); type: binding, human; conditions: 6 RA sera; 50 μl competitor at 50 μg/ml; 17 hours at 4° C.; FIG. 6
Procedure: The binding of RA autoantibodies to the Thy-GA-Trp-Leu-*Asx-Gly-Lys-Glu-Tyr coated plates as described above could be competed out by pre-incubating the sera with Trp-Leu-*Asx-Gly-Lys-Glu-Tyr peptide in solution. The experiment was carried out as follows. Serum samples were diluted one-hundred fold in 10 mM Na-phosphate, 140 mM NaCl, 0.1% tween-20, 1% BSA pH 7.4 (assay buffer). Two-hundred μl was added to 1.5 ml polypropylene tubes followed by addition of 50 μl of the following reagents dissolved in assay buffer at a concentration of 50 μg/ml:
1. Trp-Leu-Asp-β-Gly-Lys-Glu-Tyr. (βL form of the epitope)
2. Trp-Leu-Asn-Gly-Lys-Glu-Tyr (αL form of the epitope)
3. Thy-GA-Trp-Leu-*Asx-Gly-Lys-Glu-Tyr conjugate (prepared as described in example 2).
The tubes were placed at 4° C. for 17 hours, and one-hundred μl of the mixture was added into MTP coated with Thy-GA-Trp-Leu-*Asx-Gly-Lys-Glu-Tyr conjugate. The assay was performed as described above under example 2.

[2] = system: immunoaffinity purified RA auto-antibodies; assay: Immuno-blotting of cellulose-bound spot peptides with immunoaffinity purified RA auto-antibodies (Example 5); type: binding, human; conditions: IgM RF eluted from IgG Sepharose, 1 μg/mL
Excerpt: Analysis of IgM auto-antibodies opens up the possibility of removing endogenous IgG from the serum samples prior to analysis for auto-antibodies.
1. IgG is coupled to CNBr activated Sepharose using the manufacturers instructions (Pharmacia, Upsala, Sweden).
2. The IgG Sepharose is packed in a suitable column (i.e. a disposable DG10 column, BioRad laboratories, Richmond, Calif.). The column is washed with at least 10 column volumes PBS and with 10 column volumes 0.1 M sodium acetate, 0.15 M sodium chloride pH 3.5 and finally equilibrated in PBS.
3. Serum from RA patients is diluted 10 times in PBS and loaded on the column. The column is washed with PBS until the absorbency (OD 280 nm) reaches base-line.
4. Bound RF's are eluted with 0.1 M sodium acetate, 0.15 M sodium chloride pH 3.5.
5. IgM is separated from IgG and IgA by gel-filtration on a Sephadex G-200 column in 0.1 M sodium acetate, 0.15 M sodium chloride pH 3.5.
6. Eluted IgM is diluted in PBS-BT to 1 μg/mL and assayed as described below.
Seven amino-acid peptides extending over the Asn-315 residue were synthesised by spot synthesis using Whatman 540 paper (Maidstone, U.K.), using the previously described procedures (Frank, 1992, Kramer et al 1994). The peptides were automatically prepared using a spot synthesis method (Abimed, Langenfeld, F R G). The following peptides were synthesised, covalently attached via the carboxy-terminus: […]

[3] = system: human immunoglobulin in sera from patients with multiple sclerosis; assay: Homogeneous RIA with 125I BSA-BS3 MBP octapeptide tracer in MS and control sera (Example 6); type: binding; conditions: free peptide 10 μg/ml, 25 μl; % inhibition higher in MS sera than control sera (p=0.008); FIG. 9C
Excerpt: For this purpose the MBP derived octapeptide Pro-Ser-Glu-γ-Gly-Lys-Gly-Arg-Gly (γL) was manufactured synthetically using standard FMOC chemistry. The peptide was conjugated to bovine serum albumin […] by Bis-[sulfosuccinimidyl]suberate(BS^3) according to the manufacturers instructions (Pierce) and iodinated with ^125I using the chloramine T protocol as described in Example 4.
Serum from 9 MS-patients and 8 healthy persons are reacted overnight with ^125I—BSA-S^3-Pro-Ser-Glu-y-Gly-Lys-Gly-Arg-Gly followed by precipitation of immune complexes with protein A Sepharose. Serum samples are diluted 1:200 in IMP buffer. The ^125I BSA-BS^3-Pro-Ser-Glu-y-Gly-Lys-Gly-Arg-Gly tracer is diluted in IMP buffer (to an activity of 100000 CPM/25 μl). Seventy-five Al of diluted serum sample is mixed with 25 μl tracer and 25 μl of either IMP buffer or free (unconjugated/unlabelled) Pro-Ser-Glu-y-Gly-Lys-Gly-Arg-Gly peptide (in a concentration of 10 μg/ml in IMP buffer) is added to this mixture. This mixture incubated overnight at 4° C. Protein A Sepharose (PAS) 20 μl/sample vial is weighed out and washed 3 times with 10 ml IMP washing buffer, and transferred to eppendorf 1.5 ml tubes using a repeater pipette. The PAS is sedimented by centrifugation at 2000 RPM 2 min., and the supernatant is aspirated using a suction device (or a pipette). […]

[4] = system: auto-antibodies reactive with isomerised IgG Fc Asn-315 derived peptides; assay: Homogeneous RIA with 125I Thy-GA-Trp-Leu-*Asx-Gly-Lys-Glu-Tyr tracer, competition with peptides (Example 4); type: binding, human; conditions: 25 μl of 100, 1000 or 10,000 ng/ml competitor; peptide significant in the highest concentration; P=0.01 by Student's T-Test; FIG. 8
Procedure: A homogeneous RIA assay was developed for measurement of auto-antibodies with reactivity towards the isomerised form of the epitope Trp-Leu-Asn-Gly-Lys-Glu-Tyr derived from the IgG CH^2 region. The assay was performed by incubating serum samples with ^125I Thy-GA-Trp-Leu-*Asx-Gly-Lys-Glu-Tyr over-night followed by precipitation of immune-complexes with protein A Sepharose.
Serum samples are diluted 1:200 in IMP buffer (IMP-buffer: 10 mM Na-Phosphate, pH 7.4, 140 mM NaCl, 5 mM EDTA, 0.5% Triton X-100, 0.1% BSA, 10 μg/ml soy-bean trypsin inhibitor). A Thy-GA-Trp-Leu-*Asx-Gly-Lys-Glu-Tyr conjugate is prepared as described in example 2 and iodinated with ^125I using the chloramine T protocol: 100 μg of the conjugate is diluted in 0.25 M Na2HPO4 to a total volume of 140 μl. 1.5 mCi Na^125I is added followed by 10 μL Chloramin-T (1 mg/ml, prepared freshly). The solution is vortexed for 30 seconds and 150 μL methionine (1 mg/ml) is added and immediately vortexed for 120 sec. The tracer is purified on size exclusion column (type: BIOSEP SEC S-2000, size: 300×7.80 mm) equilibrated with PBS containing 1% BSA Flow rate 1.0 ml/min. 500 μl fractions are collected and analysed in a scintillation counter (γ-counter). The fractions containing the tracer are pooled and used in the homogeneous RIA assay format. […]

| Substance | competition of the binding of RA autoantibodies to Thy-GA-Trp-Leu-*Asx-Gly-Lys-Glu-Tyr coated plates (RA autoantibodies) | reactivity of purified RA auto-antibodies towards cellulose-bound peptide [2] | other results |
| --- | --- | --- | --- |
| Trp-Leu-*Asx-Gly-Lys-Glu-Tyr (WLNGKEY; not fully specified (residue 3); printed as Trp-Leu-*Asx-Gly-Lys-Glu-Tyr; also: position 3 Asx: mixture of αD Asn/Asp, βD and βL Asp after heat isomerisation) [linear Trp-Leu-Asn-Gly-Lys-Glu-Tyr heated 4 hours at 90° C; in b143 coated as Thy-GA conjugate] | competed out |  | auto-antibody reactivity (ELISA signal, absorbency at 450 nm) compared between patient groups [1]: elevated auto-antibody reactivity |
| His-Gln-Asp-Trp-Leu-Asp-β-Gly [peptide IV] |  | strong reactivity |  |
| Pro-Ser-Glu-γ-Gly-Lys-Gly-Arg-Gly |  |  | inhibition of binding of the 125I conjugate to human immunoglobulin by free peptide [3]: specifically inhibited |
| Trp-Leu-Asp-β-Gly-lys-Glu-Tyr [VII] |  | strong reactivity |  |
| Trp-Leu-Asp-β-Gly-Lys-Glu-Tyr | able to compete out the binding |  | reactivity in RIA competition (percent inhibition in the presence of competing peptide), group basis [4]: significant reactivity |

Source: patent US20040058851A1, “Specific autoimmune reactions against isomerised/optically inverted epitopes: application for diagnosis of autoimmune diseases” (priority 1999, published 2004)
